Measurements from the supplement of paper PMC13380429.

What was measured:
[1] = tested on: A549-ACE2 infected with SARS-CoV-2; assay: cell count relative to DMSO; higher = less toxic; conditions: 24 h
Caco-2 [2] = assay: cell viability relative to DMSO; higher = less toxic; conditions: 72 h
Calu-3 [3] = assay: as above; conditions: 72 h
HepG2 [4] = assay: as above; conditions: 72 h
U2OS [5] = assay: as above; conditions: 72 h
[6] = tested on: A549-ACE2 infected with SARS-CoV-2; assay: SARS-CoV-2 infection rate relative to DMSO; higher = more infection; conditions: 24 h
A549-ACE2 = assay: drug-induced phospholipidosis relative to tamoxifen; higher = more phospholipidosis
[7] = tested on: A549-ACE2 infected with SARS-CoV-2; assay: morphology score (similarity to uninfected cells); higher = more like uninfected cells; conditions: 24 h
Caco-2 [8] = assay: relative viability EC50 (midpoint between 100% and the lowest measured viability); higher = less toxic; conditions: 72 h
Calu-3 [9] = assay: as above; conditions: 72 h
HepG2 [10] = assay: as above; conditions: 72 h
U2OS [11] = assay: as above; conditions: 72 h
Caco-2 [12] = assay: drug sensitivity score (DSS) for viability; higher = more toxic; extreme values may be limits of the assay; conditions: 72 h
Calu-3 [13] = assay: as above; conditions: 72 h
HepG2 [14] = assay: as above; conditions: 72 h
U2OS [15] = assay: as above; conditions: 72 h
Vero E6 [16] = assay: cell viability relative to DMSO; higher = less toxic; conditions: 72 h
Vero E6 [17] = assay: relative viability EC50 (midpoint between 100% and the lowest measured viability); higher = less toxic; conditions: 72 h
Vero E6 [18] = assay: drug sensitivity score (DSS) for viability; higher = more toxic; extreme values may be limits of the assay; conditions: 72 h

Nc1nccc(Oc2ccc(NC(=O)c3c[nH]cc(-c4ccc(F)cc4)c3=O)cc2F)c1Cl [metatinib]
Conditions	SARS-CoV-2 infection rate, [6] [%]	cell count, [1] [%]	cell viability, Caco-2 [2] [%]	cell viability, Calu-3 [3] [%]	cell viability, HepG2 [4] [%]	cell viability, U2OS [5] [%]	morphology score, [7]
1 nM	–	–	100	91.4	104	96.2	–
10 nM	–	–	104	96.5	106	102	–
100 nM	–	–	92.6	95.5	101	100	–
0.3 µM	101	95	–	–	–	–	-0.24
1000 nM	–	–	104	95.3	85.6	99.2	–
3 µM	91	102	–	–	–	–	-0.08
10 µM	97	106	–	–	–	–	0.16
10000 nM	–	–	80	96.3	37.7	94.9	–
30 µM	60	60	–	–	–	–	0.34

drug-induced phospholipidosis [%], A549-ACE2
Conditions	0.3 µM	0.833333 µM	3.33333 µM	6.66667 µM	10 µM	30 µM
24 h	2.65	1.25	4.8	18.8	23.4	32.3
48 h	4.96	-2.22	-0.29	7.93	12.6	20.2
72 h	2.59	-0.924	2.59	8.07	10.8	22.5

Conditions	drug sensitivity score	relative viability EC50 [µM]
Caco-2 [8]	–	> 10
Caco-2 [12]	0.4	–
Calu-3 [9]	–	> 10
Calu-3 [13]	0	–
HepG2 [10]	–	1.61
HepG2 [14]	5.7	–
U2OS [11]	–	> 10
U2OS [15]	0	–

COCCOc1ccc(N2CCN(CCn3ncc4c3nc(N)n3nc(-c5ccco5)nc43)CC2)cc1 [preladenant]
cell viability [%]
Conditions	Caco-2 [2]	Calu-3 [3]	HepG2 [4]	U2OS [5]	Vero E6 [16]
1 nM	98.1	106	97	97.6	91.2
10 nM	99	112	105	101	99.5
100 nM	98.1	97.2	94	95.3	97.7
1000 nM	91.8	92.3	99.6	95.1	102
10000 nM	93.1	107	93.2	96.9	99.6

Conditions	drug sensitivity score	relative viability EC50 [µM]
Caco-2 [8]	–	> 10
Caco-2 [12]	0	–
Calu-3 [9]	–	> 10
Calu-3 [13]	0	–
HepG2 [10]	–	> 10
HepG2 [14]	0	–
U2OS [11]	–	> 10
U2OS [15]	0	–
Vero E6 [17]	–	> 10
Vero E6 [18]	0	–

CC[N+](C)(CC)CCC[n+]1c(-c2ccccc2)c2cc(N)ccc2c2ccc(N)cc21 [propidium-iodide]
cell viability [%]
Conditions	Caco-2 [2]	Calu-3 [3]	HepG2 [4]	U2OS [5]	Vero E6 [16]
1 nM	91.3	100	93.8	99.2	96.8
10 nM	99.2	99.6	104	103	99.5
100 nM	93.1	102	90.8	98.4	98.3
1000 nM	95.3	104	90.4	99.8	96
10000 nM	75.7	92.3	80.1	83.7	95.7

Conditions	drug sensitivity score	relative viability EC50 [µM]
Caco-2 [8]	–	> 10
Caco-2 [12]	1.5	–
Calu-3 [9]	–	> 10
Calu-3 [13]	0	–
HepG2 [10]	–	> 10
HepG2 [14]	1.2	–
U2OS [11]	–	> 10
U2OS [15]	0.3	–
Vero E6 [17]	–	> 10
Vero E6 [18]	0	–
